Assay [1] concerns involucrin mRNA. As to the kind of experiment: Involucrin mRNA in keratinocytes by Northern Blot. The assay is classed as cell-based, Human. The conditions noted are these: for involucrin (INV) mRNA level compared to the vehicle alone: low calcium (0.03 mM), 24 hours, 10 μM. The procedure: (§1) Human keratinocyte cells were incubated in culture containing calcium at a concentration of 0.03 mM Ca^++ (a level that is too low to induce differentiation). Also included in the culture medium were clofibrate at 400 μM or ETYA at 10 μM and 20 μM, while separate cell cultures were maintained as controls with neither clofibrate nor ETYA. The production of mRNA for both involucrin and transglutaminase was measured at intervals over a 48-hour time period (0, 6, 12, 24, and 48 hours) by Northern Blot analysis. In each case, the lighter bars represent the control cells and the darker bars the cells incubated in the clofibrate-containing medium. The degree of mRNA generated is expressed as a percent of the control at zero hours.
(§2) Human epidermis was isolated from newborn foreskins and keratinocytes were plated in serum-free keratinocyte growth medium (“KGM”; Clonetics, San Diego, Calif. USA), using conventional techniques. Cells were treated with either the test compounds in vehicle or vehicle alone (<0.1% ethanol) for 24 or 48 hours. The test compounds were obtained from Sigma Chemical Co. (St. Louis. Mo. USA) and were stored as 15 mM stock solutions at −20° C. Mevalonate was solubilized in sterile water.
(§3) Total RNA was isolated by using TRIZOL (Sigma Chemical Co.), following the manufacturer's protocol. Ethanol-precipitate RNA pellets were suspended in sterile, diethylpyrocarbonate (DEPC)-treated water, and RNA was quantified by absorbance at 260 nm using the 260/280 nm ratio as an index of purity. RNA (15 μg per sample) was size fractionated through a 1% agarose gel containing 2.2 M formaldehyde. RNA integrity was visualized following acridine orange staining of the gel following electrophoresis. The RNA was transfered to a nylon membrane that was subsequently baked at 80° C. for 2 hours. Blots were hybridized with the appropriate ^32p-labeled probe overnight at 65° C. Washes were then performed in a solution containing 0.1% SSC and 0.1% sodium dedecyl sulfate (SDS) for 20 minutes at room temperature, followed by a 20-minute wash at 65° C. Autoradiography was performed at −70° C. Blots were probed with β-actin to confirm equal loading. Appropriate bands were quantified by densitometry.
(§4) Northern blot analyses were performed on keratinocytes maintained in low calcium (0.03 mM) and incubated for 24 hours in the presence of vehicle alone (<0.1% ethanol) or vehicle containing 25-hydroxycholesterol (10 μM), 22(R)-hydroxycholesterol (10 μM) cholesterol (10 μM), or mevalonate (500 μM) (individually). The mRNA levels of involucrin (“INV”) and transglutaminase (“TG'ase”) are shown in the bar graph of FIG. 14a, the INV indicated by clear bars and the TG'ase by shaded bars, both with error limits shown.

Assay [2] has as its system transglutaminase mRNA. As to the kind of experiment: Transglutaminase mRNA in keratinocytes by Northern Blot. The settings on record: for transglutaminase (TG'ase) mRNA level compared to the vehicle alone: low calcium (0.03 mM), 24 hours, 10 μM. The assay is classed as cell-based, Human. The procedure:
as §1, §2, §3, §4

The next assay has as its system involucrin protein. As to the kind of experiment: Involucrin protein level in keratinocytes by Western Blot. The settings on record: for increase in INV protein: high calcium (1.2 mM), 15 μM; for INV protein level relative to the control: low calcium (0.03 mM), 24 hours. The assay is classed as cell-based, Human. The procedure: Measurements of the level of the involucrin protein itself were performed in the culture medium by Western Blot. Various incubations were performed, in media containing clofibrate at concentrations ranging from 0 (vehicle only) to 400 μM and calcium ion at both 0.03 mM and 1.2 mM. The results are shown in FIG. 9a for tests with calcium ion at 0.03 mM, and in FIG. 9b for tests with calcium ion at 1.2 mM. In these figures, the protein contents are expressed as percents of the respective measurements taken from media incubated for the same period of time but in the absence of clofibrate.
The procedures of Example 8 were followed, and measurements were taken on the involucrin protein levels from cells incubated at various concentrations of farnesol and juvenile hormone III ranging from 0 (vehicle only) to 15 μM, in media containing 0.03 mM and 1.2 mM calcium ion, for 24 hours. The results are shown in FIG. 10 for farnesol and FIG. 11 for juvenile hormone III, in 0.03 mM Ca^++.
Protein concentration was assessed by protein electrophoresis and Western blotting. Cells were lysed is 2% SDS and the lysate sonicated. Protein determinations were made by use of a Bicinchoninic add protein assay (Pierce Chemical Company, Rockford, Ill. USA). Following protein determination, equal amounts at protein (50 μg) were separated by electrophoresis an 7.5% polyacrylamide gels and electroblotted onto polyvinylidene […] membranes (0.2-μ, obtained from Bio-Rad Laboratories Hercules, Calif., USA). Involucrin protein was detected by incubation over-night at 4° C. C. with a polyclonal rabbit anti-human involucrin antibody (1:1000 dilution). The involucrin-specific bands on the autoradiograms were quantitated by densitometry by densitometry. Transglutaminase protein expression was measured in a similar mmaner, using stacking, sample and running buffers containing 4 M urea, and the gels following electrophoresis were washed in 4 M urea, 25 mM TRIS-HCl, pH 7.4, 7.5 mM NaCl, 0.1 mM dithiothreitol (DTT), and 2 mM ethylenediamine tetraacetic acid for 90 minutes prior to electoblotting, allowing the transglutaminase to be detected by antibody. Specific bands on the autoradiograms were quantified by densitometry.

Another assay concerns transglutaminase protein. Kind of assay: Transglutaminase protein level in keratinocytes by Western blotting. The format is cell-based, Human. The conditions noted are these: for TG'ase protein level relative to the control: low calcium (0.03 mM), 24 hours. The procedure:
Protein concentration was assessed by protein electrophoresis and Western blotting. Cells were lysed is 2% SDS and the lysate sonicated. Protein determinations were made by use of a Bicinchoninic add protein assay (Pierce Chemical Company, Rockford, Ill. USA). Following protein determination, equal amounts at protein (50 μg) were separated by electrophoresis an 7.5% polyacrylamide gels and electroblotted onto polyvinylidene […] membranes (0.2-μ, obtained from Bio-Rad Laboratories Hercules, Calif., USA). Involucrin protein was detected by incubation over-night at 4° C. C. with a polyclonal rabbit anti-human involucrin antibody (1:1000 dilution). The involucrin-specific bands on the autoradiograms were quantitated by densitometry by densitometry. Transglutaminase protein expression was measured in a similar […], using stacking, sample and running buffers containing 4 M urea, and the gels following electrophoresis were washed in 4 M urea, 25 mM TRIS-HCl, pH 7.4, 7.5 mM NaCl, 0.1 mM dithiothreitol (DTT), and 2 mM ethylenediamine tetraacetic acid for 90 minutes prior to electoblotting, allowing the transglutaminase to be detected by antibody. Specific bands on the autoradiograms were quantified by densitometry. Levels of involucrin and transglutaminase protein were measured in keratinocytes incubated in low calcium (0.03 mM) and treated with the test compounds for 24 hours. The are shown in the bar graph of FIG. 17a, where the test compounds are compared with the vehicle alone (control) and cholesterol, using the same bar indications as in FIGS 14 through 16. […] Cholesterol had no effect.

The test system of assay [3] is Normal human keratinocytes. Kind of assay: Cornified envelope formation (35S incorporation) in keratinocytes. The settings on record: 10 μM, 48 hours. The assay is classed as cell-based.
Another assay relates to keratinocytes. As to the kind of experiment: Rate of DNA synthesis (3H-thymidine incorporation) in keratinocytes. The assay is classed as cell-based, Human. The settings on record: 10 μM, 24 hours, low calcium (0.03 mM); 16-hour 3H-thymidine period. The procedure: The rate of DNA synthesis was determined by measuring the incorporation of ^3H-thymidine into cellular DNA after 16 hours of incubation with 2 μCi^3H-thymidine per mL of media (110 Ci/mmol methyl-1′,2′-^3H-thymidine (Amersham Laboratories, Arlington Heights, Ill. USA). The cells were then solubilized in 1N NaOH, and the radioactivity in the washed TCA precipitate was quantitated by scintillation spectroscopy.
Using the procedures set forth in the Materials and Methods section above, 25-hydroxycholesterol (10 μM) and 22(R)-hydroxycholesterol (10 μM, were compared with cholesterol (10 μM) and the vehicle alone control), with treatment for 24 hours under low calcium (0.03 mM) condition. The results are shown in the bar graph of FIG. 19.

Assay [4] has as its system involucrin mRNA. As to the kind of experiment: Involucrin mRNA in keratinocytes by Northern Blot. The assay is classed as cell-based, Human. The settings on record: calcium 1.2 mM, 10 μM, 24 hours.
Assay [5] deals with transglutaminase mRNA. As to the kind of experiment: Transglutaminase mRNA in keratinocytes by Northern Blot. The format is cell-based, Human. The settings on record: calcium 1.2 mM, 10 μM, 24 hours.
Setting [6] is: doses 0-15.0 μM, low calcium, FIG. 15.

Turning to `CC(C)CC[C@@H](O)[C@@H](C)[C@H]1CC[C@H]2[C@@H]3CC=C4C[C@@H](O)CC[C@]4(C)[C@H]3CC[C@]12C` [22(R)-hydroxycholesterol], the EC50 with involucrin mRNA [1] (Homo sapiens, Keratinocyte, doses 0-15.0 μM, low calcium, FIG. 15, read-out: dosage of half-maximal effects on INV mRNA) was roughly 5 µM; in the assay on transglutaminase mRNA [2] (Homo sapiens, Keratinocyte, doses 0-15.0 μM, low calcium, FIG. 15, read-out: dosage of half-maximal effects on TG'ase mRNA), roughly 5 µM. Besides, in the assay on involucrin mRNA [1] (setting [6]), the “dosage of maximal effects on INV mRNA” value was in the range of 10 to 15 µM. Also, the “involucrin (INV) mRNA level compared to the vehicle alone” value with involucrin mRNA [1] is “approximate twofold increase”. Moreover, the “dosage of maximal effects on TG'ase mRNA” value in the assay on transglutaminase mRNA [2] (setting [6]) fell in the range of 10 to 15 µM. The “transglutaminase (TG'ase) mRNA level compared to the vehicle alone” value with transglutaminase mRNA [2] is listed as “approximate twofold increase”. Besides, in the assay with involucrin protein, the “increase in INV protein” value was 2.8 fold. For the same compound, the “INV protein level relative to the control” value in the assay with involucrin protein is “approximately 3.2 fold”. In the assay on transglutaminase protein (high calcium (1.2 mM), 5 μM), the “increase in TG'ase protein level” value is listed as 2.1 fold. The “TG'ase protein level relative to the control” value in the assay on transglutaminase protein is given as “approximately 2.8 fold”. Besides, the “increase in cornified envelope (CE) formation” value (shortened to “increase in cornified envelope”) in assay [3] (high calcium (1.2 mM)) came to 2.1 fold; in assay [3] (low calcium (0.03 mM)), 1.3 fold. Besides, the “rate of DNA synthesis” value in the assay with keratinocytes is 42 % of control.
Take `CC(C)CCC[C@@H](C)[C@H]1CC[C@H]2[C@@H]3CC=C4C[C@@H](O)CC[C@]4(C)[C@H]3CC[C@]12C` [cholesterol]: in the assay on involucrin mRNA [1], the “involucrin (INV) mRNA level compared to the vehicle alone” value was “neither cholesterol (“chol”) nor mevalonate (“mev”) had any effect”. Further, in the assay on transglutaminase mRNA [2], the “transglutaminase (TG'ase) mRNA level compared to the vehicle alone” value was “neither cholesterol (“chol”) nor mevalonate (“mev”) had any effect”. Further, in the assay on involucrin protein, the “increase in INV protein” value is recorded as “essentially no increase” and the “INV protein level relative to the control” value is given as “had no effect”. Moreover, the “TG'ase protein level relative to the control” value in the assay with transglutaminase protein is “had no effect”. Also, the “increase in cornified envelope” value in assay [3] (high calcium (1.2 mM)) was “no increase”. The “increase in cornified envelope” value in assay [3] (low calcium (0.03 mM)) is listed as “no increase”. For the same compound, the “rate of DNA synthesis” value in the assay on keratinocytes is listed as 117 % of control. Further, the “INV mRNA level, induction” value in the assay on involucrin mRNA [4] is “no effect”. Moreover, the “TG'ase mRNA level, induction” value in the assay on transglutaminase mRNA [5] was “no effect”.

Values taken from USRE37770E1, “Treatment of skin conditions by use of PPARα activators” (The Regents of the University of California, priority 1997, dated 2002).
